Measured values taken from patent publication US20220204510A1, “2,3-DIHYDRO-1H-PYRROLIZINE-7-FORMAMIDE DERIVATIVE AND APPLICATION THEREOF” (CHIA TAI TIANQING PHARMACEUTICAL GROUP CO., LTD., priority 2018, published 2022).

Test system: HBV
Assay: qPCR test in the HBV in vitro test (HBV DNA in HepG2.2.15 cells)
Type: cell-based
Settings: Hepatitis B virus, 192 h, HBV DNA in HepG2.2.15 culture medium, day 8, read-out: Half maximal inhibitory concentration (EC50) of HBV
Procedure: To evaluate the inhibitory effect of the compound on HBV by detecting content of HBV DNA in HepG2.2.15 cells in a real-time qPCR test, with EC50 of the compound as an indicator.
3.1. HepG2.2.15 cells (4×10^4 cells/well) were inoculated into a 96-well plate and cultured at 37° C. in 5% CO2 overnight. 3.2. On day 2, the compound was 3-fold diluted in gradient for a total of 8 dilution gradients. The compound at different concentrations was added into the culture wells in duplicate. The final concentration of DMSO in the culture medium was 1%. 1 μM GLS4 was used as a 100% inhibition control (the structure of GLS4 disclosed in WO2008154817A1 is as follows:
1% DMSO was used as a 0% inhibition control. 3.3. On day 5, the culture medium was replaced with a fresh culture medium containing the compound. 3.4. On day 8, the culture medium in the culture wells was collected, and the high-throughput DNA purification kit (Qiagen-51162) was used to extract DNA. For specific steps, refer to the product manual.
3.6. Each well of the 96-well PCR plate was added with 15 μL of the reaction mixture, and then with 10 μL of sample DNA or HBV DNA standard. 3.7. The reaction conditions for PCR: heating at 95° C. for 10 min, degeneration at 95° C. for 15 s, and extension at 60° C. for 1 min, with a total of 40 cycles.
3.8.1. Calculation of the inhibition percentage: % Inh.=[1−(DNA copy number in the sample−DNA copy number in 1 μM GLS4)/(DNA copy number in the DMSO control−DNA copy number in 1 μM GLS4)]×100. 3.8.2. Calculation of EC50: half maximal inhibitory concentration (EC50) of the compound for HBV was calculated using GraphPad Prism software. 3.8.3.

First: CC1(NC(=O)C(=O)c2cc(C(=O)Nc3ccc(F)c(F)c3)c3n2CCC3)CCOCC1 [Compound 1]
Second: CC1(NC(=O)C(=O)c2cc(C(=O)Nc3ccc(F)c(F)c3)c3n2CCCC3)CCOCC1 [Compound 6]
The EC50 of the first is 3.1-fold lower: 35 nM for the first, 110 nM for the second. The first is the more potent here.

Compared with `CC1(NC(=O)C(=O)c2c(Cl)c(C(=O)Nc3ccc(F)c(F)c3)c3n2CCC3)CCOCC1` [Compound 2], `Cc1c(C(=O)Nc2ccc(F)c(F)c2)c2n(c1C(=O)C(=O)NC1(C)CCOCC1)CCC2` [Compound 3] is 1.7-fold higher in EC50: 3 nM for the first, 5 nM for the second. The first is the more potent here.

Going from `CC1(NC(=O)C(=O)c2c(Cl)c(C(=O)Nc3ccc(F)c(F)c3)c3n2CCC3)CCN(CC(=O)O)CC1` [Compound 4] to `CC1(NC(=O)C(=O)c2c(Cl)c(C(=O)Nc3ccc(F)c(F)c3)c3n2CCC3)CCC(CC(=O)O)CC1` (stereo not shown) [Compound 13], the EC50 falls from 580 nM to 19 nM (31-fold). The second is the more potent here.

`CC1(NC(=O)C(=O)c2c(Cl)c(C(=O)Nc3ccc(F)c(C#N)c3)c3n2CCC3)CCOCC1` [Compound 5] and `N#CC1(NC(=O)C(=O)c2c(Cl)c(C(=O)Nc3ccc(F)c(F)c3)c3n2CCC3)CCOCC1` [Compound 12] are within 1.5-fold of each other in EC50: 7 nM for the first, 5 nM for the second.

Going from `CC1(NC(=O)C(=O)c2c(Cl)c(C(=O)Nc3ccnc(Cl)c3)c3n2CCC3)CCOCC1` [Compound 7] to `CC1(NC(=O)C(=O)c2c(Cl)c(C(=O)Nc3cc(F)c(F)c(F)c3)c3n2CCC3)CCOCC1` [Compound 10], the EC50 falls from 30 nM to 2 nM (15-fold).

Compared with `CC1(NC(=O)C(=O)c2c(Br)c(C(=O)Nc3ccc(F)c(F)c3)c3n2CCC3)CCOCC1` [Compound 8], `CC1(NC(=O)C(=O)c2c(C(F)(F)F)c(C(=O)Nc3ccc(F)c(F)c3)c3n2CCC3)CCOCC1` [Compound 9] is 4.6-fold higher in EC50: 9 nM for the first, 41 nM for the second.

Compared with `COCC1(NC(=O)C(=O)c2c(Cl)c(C(=O)Nc3ccc(F)c(F)c3)c3n2CCC3)CCOCC1` [Compound 11], `C[C@]1(NC(=O)C(=O)c2c(Cl)c(C(=O)Nc3ccc(F)c(F)c3)c3n2CCC3)CC[C@H](C(=O)O)CC1` [Compound 19] is 5-fold higher in EC50: 4 nM for the first, 20 nM for the second. The first is the more potent here.

Going from `C[C@@H](NC(=O)C(=O)c1c(Cl)c(C(=O)Nc2ccnc(Cl)c2)c2n1CCC2)C(F)(F)F` [Compound 14] to `CC(C)(CCC(=O)O)NC(=O)C(=O)c1c(Cl)c(C(=O)Nc2ccc(F)c(F)c2)c2n1CCC2` [Compound 16], the EC50 falls from 70 nM to 41 nM (1.7-fold). The second is the more potent here.

Compared with `O=C(NC12CCC(C(=O)O)(CC1)CC2)C(=O)c1c(Cl)c(C(=O)Nc2ccc(F)c(F)c2)c2n1CCC2` [Compound 15], `C[C@]1(NC(=O)C(=O)c2c(Cl)c(C(=O)Nc3ccc(F)c(F)c3)c3n2CCC3)CC[C@@H](C(=O)O)CC1` [Compound 20] is 3.4-fold lower in EC50: 37 nM for the first, 11 nM for the second.

First: C[C@]1(NC(=O)C(=O)c2c(Cl)c(C(=O)Nc3ccc(F)c(F)c3)c3n2CCC3)CC[C@@H](CCC(=O)O)CC1 [Compound 21]
Second: C[C@]1(NC(=O)C(=O)c2c(Cl)c(C(=O)Nc3ccc(F)c(F)c3)c3n2CCC3)CC[C@H](CCC(=O)O)CC1 [Compound 22]
The EC50 of the first is 4.7-fold lower: 3 nM for the first, 14 nM for the second.

Going from `CC(C)(CCCC(=O)O)NC(=O)C(=O)c1c(Cl)c(C(=O)Nc2ccc(F)c(F)c2)c2n1CCC2` [Compound 23] to `CC(C)(CCCCC(=O)O)NC(=O)C(=O)c1c(Cl)c(C(=O)Nc2cc(F)c(F)c(F)c2)c2n1CCC2` [Compound 27], the EC50 falls from 27 nM to 12 nM (2.2-fold). The second is the more potent here.

Going from `N#CC1(NC(=O)C(=O)c2c(Cl)c(C(=O)Nc3ccc(F)c(F)c3)c3n2CCC3)CCC(CC(=O)O)CC1` (stereo not shown) [Compound 24] to `N#CC1(NC(=O)C(=O)c2c(Cl)c(C(=O)Nc3cc(F)c(F)c(F)c3)c3n2CCC3)CCC(CC(=O)O)CC1` (stereo not shown) [Compound 26], the EC50 falls from 299 nM to 174 nM (1.7-fold).

`CC(C)(C)OC(=O)C[C@H]1CC[C@](C)(NC(=O)C(=O)c2c(Cl)c(C(=O)Nc3cc(F)c(F)c(F)c3)c3n2CCC3)CC1` [Compound 25-3] and `COC(=O)C[C@H]1CC[C@](C)(NC(=O)C(=O)c2c(Cl)c(C(=O)Nc3cc(F)c(F)c(F)c3)c3n2CCC3)CC1` [Compound 31] are within 1.5-fold of each other in EC50: 4 nM for the first, 5 nM for the second.

Going from `O=C(O)CC1CCC(NC(=O)C(=O)c2c(Cl)c(C(=O)Nc3cc(F)c(F)c(F)c3)c3n2CCC3)(C(F)(F)F)CC1` (stereo not shown) [Compound 28] to `O=C(O)C[C@H]1CC[C@](NC(=O)C(=O)c2c(Cl)c(C(=O)Nc3cc(F)c(F)c(F)c3)c3n2CCC3)(C(F)(F)F)CC1` [Compound 29], the EC50 rises from 2 nM to 3 nM (1.5-fold).

`O=C(O)C[C@H]1CC[C@@](NC(=O)C(=O)c2c(Cl)c(C(=O)Nc3cc(F)c(F)c(F)c3)c3n2CCC3)(C(F)(F)F)CC1` [Compound 30] was tested, and the EC50 was 1 nM.

Biological target: T1, CYP1A2 (Homo sapiens, UniProt P05177)
T1 construct: from tissue; host or cells: human liver microsomes
T1 sequence (P05177 1-516): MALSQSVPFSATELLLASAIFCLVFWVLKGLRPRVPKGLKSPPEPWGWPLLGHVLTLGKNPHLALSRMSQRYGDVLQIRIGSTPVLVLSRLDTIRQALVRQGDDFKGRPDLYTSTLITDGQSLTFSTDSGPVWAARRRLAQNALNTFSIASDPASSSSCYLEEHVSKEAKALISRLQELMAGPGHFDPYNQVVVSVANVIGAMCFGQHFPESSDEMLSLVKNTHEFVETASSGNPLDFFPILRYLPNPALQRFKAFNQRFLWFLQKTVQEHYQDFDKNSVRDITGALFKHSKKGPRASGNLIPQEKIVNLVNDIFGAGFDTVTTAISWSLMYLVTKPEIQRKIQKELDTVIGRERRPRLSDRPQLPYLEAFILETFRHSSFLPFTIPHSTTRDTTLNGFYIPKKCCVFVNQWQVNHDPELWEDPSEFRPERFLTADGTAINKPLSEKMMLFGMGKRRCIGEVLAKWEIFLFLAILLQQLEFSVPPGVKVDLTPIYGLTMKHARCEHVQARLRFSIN
Assay: Inhibition of human liver microsomal cytochrome P450 isoenzymes
Type: in vitro ADME
Settings: human liver microsomes
Procedure: (§1) Experimental objective: to determine the inhibitory effect of the test compound on the activity of human liver microsomal cytochrome P450 isoenzymes (CYP1A2, CYP2C9, CYP2C19, CYP2D6 and CYP3A4). Experimental procedures: first, the test compound (10 mM) was diluted in gradient to prepare working solutions (100× final concentration) at concentrations of: 5, 1.5, 0.5, 0.15, 0.05, 0.015, and 0.005 mM, and working solutions of positive inhibitors for P450 isoenzymes (CYP1A2, CYP2C9, CYP2C19, CYP2D6, and CYP3A4) and the specific substrate mixtures thereof (5 in 1) were prepared simultaneously; human liver microsomes frozen in a−80° C. refrigerator were thawed on ice, and after all thawed, the human liver microsomes were diluted with PB to prepare a working solution at a specific concentration (0.253 mg/mL); 20 μL of the substrate mixture (20 μL of PB was added into the blank well) and 158 μL of the working solution of human liver microsomes were added into the reaction plate which was then placed on ice for use; then 2 μL of the test compound at each concentration (N=1) and a specific inhibitor (N=2) were added into the corresponding well, and the group without the inhibitor (test compound or the positive inhibitor) was added with a corresponding organic solvent as a control sample (the test compound control sample was 1:1 DMSO:MeOH; the positive control sample was 1:9 DMSO:MeOH); after pre-incubation under a 37° C. water bath for 10 min, 20 μL of a coenzyme factor (NADPH) solution was added into the reaction plate and incubated under a 37° C. water bath for 10 min, 400 μL of a cold acetonitrile solution (the internal standard was 200 ng/mL Tolbutamide and Labetalol) was added to terminate the reaction, and the reaction plate was placed on a shaker and shaken for 10 min; after centrifugation at 4,000 rpm for 20 min, 200 μL of the supernatant was collected and added to 100 μL of water to dilute the sample, and, finally, the plate was sealed, oscillated shaken evenly, and subjected to LC/MS/MS detection.

With `CC1(NC(=O)C(=O)c2c(Cl)c(C(=O)Nc3ccc(F)c(F)c3)c3n2CCC3)CCOCC1` [Compound 2] the IC50 was greater than 50000 nM.

Biological target: T2, CYP2C9 (Homo sapiens, UniProt P11712)
T2 construct: from tissue; host or cells: human liver microsomes
T2 sequence (P11712 whole entry): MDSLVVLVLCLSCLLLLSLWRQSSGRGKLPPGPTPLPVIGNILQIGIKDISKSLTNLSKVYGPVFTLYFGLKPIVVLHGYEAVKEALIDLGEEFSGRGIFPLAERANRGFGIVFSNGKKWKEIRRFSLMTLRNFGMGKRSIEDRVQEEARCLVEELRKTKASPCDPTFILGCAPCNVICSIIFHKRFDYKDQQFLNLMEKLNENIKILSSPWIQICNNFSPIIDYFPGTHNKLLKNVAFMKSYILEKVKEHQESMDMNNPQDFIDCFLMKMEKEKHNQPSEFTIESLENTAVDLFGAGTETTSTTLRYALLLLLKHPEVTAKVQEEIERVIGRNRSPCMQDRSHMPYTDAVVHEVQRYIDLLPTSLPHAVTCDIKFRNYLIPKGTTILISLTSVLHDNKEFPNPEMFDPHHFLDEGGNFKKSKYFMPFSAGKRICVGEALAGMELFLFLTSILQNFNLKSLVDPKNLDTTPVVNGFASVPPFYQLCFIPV
Assay: as above
Type: in vitro ADME
Settings: human liver microsomes
Procedure: as §1

Compound `CC1(NC(=O)C(=O)c2c(Cl)c(C(=O)Nc3ccc(F)c(F)c3)c3n2CCC3)CCOCC1` [Compound 2] has an IC50 greater than 50000 nM.

Biological target: T3, CYP2D6 (Homo sapiens, UniProt P10635)
T3 construct: from tissue; host or cells: human liver microsomes
T3 sequence (P10635 whole entry): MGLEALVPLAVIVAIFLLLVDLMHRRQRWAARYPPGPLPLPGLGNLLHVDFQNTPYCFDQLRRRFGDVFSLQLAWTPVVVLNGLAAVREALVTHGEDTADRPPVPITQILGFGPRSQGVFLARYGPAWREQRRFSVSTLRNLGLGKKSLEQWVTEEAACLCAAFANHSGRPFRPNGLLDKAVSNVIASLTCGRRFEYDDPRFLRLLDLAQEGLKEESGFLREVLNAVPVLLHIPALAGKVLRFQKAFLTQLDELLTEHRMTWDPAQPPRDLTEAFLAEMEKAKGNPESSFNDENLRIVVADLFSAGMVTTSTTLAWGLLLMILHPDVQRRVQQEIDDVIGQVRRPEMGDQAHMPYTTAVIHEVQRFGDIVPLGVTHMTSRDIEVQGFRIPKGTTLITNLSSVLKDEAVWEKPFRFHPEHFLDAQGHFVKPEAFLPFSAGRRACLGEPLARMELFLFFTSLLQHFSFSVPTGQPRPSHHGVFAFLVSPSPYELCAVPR
Assay: as above
Type: in vitro ADME
Settings: human liver microsomes
Procedure: as §1

Work on `CC1(NC(=O)C(=O)c2c(Cl)c(C(=O)Nc3ccc(F)c(F)c3)c3n2CCC3)CCOCC1` [Compound 2] yielded an IC50 greater than 50000 nM.

Biological target: T4, CYP3A4 (Homo sapiens, UniProt P08684)
T4 construct: from tissue; host or cells: human liver microsomes
T4 sequence (P08684 whole entry): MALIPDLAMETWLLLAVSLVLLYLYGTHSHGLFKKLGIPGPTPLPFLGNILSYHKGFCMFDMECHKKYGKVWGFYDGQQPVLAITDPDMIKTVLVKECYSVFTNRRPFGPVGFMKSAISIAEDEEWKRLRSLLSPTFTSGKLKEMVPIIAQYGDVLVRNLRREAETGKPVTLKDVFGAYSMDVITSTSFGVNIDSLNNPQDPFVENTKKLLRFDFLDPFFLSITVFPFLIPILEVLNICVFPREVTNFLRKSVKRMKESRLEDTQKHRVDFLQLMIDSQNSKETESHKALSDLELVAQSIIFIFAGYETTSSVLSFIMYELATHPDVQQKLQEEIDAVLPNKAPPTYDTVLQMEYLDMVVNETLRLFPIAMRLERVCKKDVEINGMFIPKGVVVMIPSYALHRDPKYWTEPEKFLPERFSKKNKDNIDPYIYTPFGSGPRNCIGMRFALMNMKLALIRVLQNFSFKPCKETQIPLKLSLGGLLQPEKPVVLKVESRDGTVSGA
Assay: as above
Type: in vitro ADME
Settings: human liver microsomes
Procedure: as §1

`CC1(NC(=O)C(=O)c2c(Cl)c(C(=O)Nc3ccc(F)c(F)c3)c3n2CCC3)CCOCC1` [Compound 2] gave an IC50 greater than 50000 nM.

Biological target: T5, CYP2C19 (Homo sapiens, UniProt P33261)
T5 construct: from tissue; host or cells: human liver microsomes
T5 sequence (P33261 whole entry): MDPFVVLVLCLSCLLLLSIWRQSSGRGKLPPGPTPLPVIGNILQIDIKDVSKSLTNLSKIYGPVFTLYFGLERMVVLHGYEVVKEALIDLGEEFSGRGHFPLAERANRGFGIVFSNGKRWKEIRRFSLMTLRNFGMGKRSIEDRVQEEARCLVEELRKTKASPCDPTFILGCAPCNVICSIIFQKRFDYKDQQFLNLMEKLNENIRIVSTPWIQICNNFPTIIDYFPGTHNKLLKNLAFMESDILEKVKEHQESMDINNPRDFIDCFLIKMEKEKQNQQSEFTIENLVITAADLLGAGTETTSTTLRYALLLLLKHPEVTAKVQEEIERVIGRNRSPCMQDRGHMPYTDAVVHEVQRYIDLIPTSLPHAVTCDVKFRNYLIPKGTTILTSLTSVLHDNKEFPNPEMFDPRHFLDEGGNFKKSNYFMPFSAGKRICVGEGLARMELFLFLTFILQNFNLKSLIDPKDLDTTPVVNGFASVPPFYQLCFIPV
Assay: as above
Type: in vitro ADME
Settings: human liver microsomes
Procedure: as §1

With `CC1(NC(=O)C(=O)c2c(Cl)c(C(=O)Nc3ccc(F)c(F)c3)c3n2CCC3)CCOCC1` [Compound 2] the IC50 was greater than 50000 nM.
